Results taken from patent US20030022821A1, “Bioactive peptides” (priority 1998, published 2003).
≈ marks a conversion by molar mass, not a printed value. Where two headings read alike, the source gives them in different places. Values belong to the compound of their own block, whether it stands above or below them. Ends that are not written are not given here. Peptide text beside a SMILES is read from it. * marks the point of attachment. Acm = CC(=O)NC*

Key:
[1] = test system: Escherichia coli ATCC 25922; assay type: cell-based
Procedure: (§1) The bacterial strains used were: Escherichia coli ATCC 25922 and Staphylococcus aureus ATCC 25923. All strains were stored at −70° C. The bacteria were grown in 2% Bacto Peptone water (Difco 1807-17-4). All tests were performed with bacteria in mid-logarithmic growth phase. Determination of the minimum inhibitory concentration (MIC) of the peptides for bacterial strains were performed in 1% Bacto Peptone water. A standard microdilution technique with an inoculum of 2×10^6 CFU/ml was used. All assays were performed in triplets. Since the peptides are positively charged and therefore could adhere to the plastic wells, we controlled the actual concentration of the peptides in the solution by HPLC. There was no difference between the concentration of the peptides before or after adding the solution to the plastic wells.

[2] = test system: Staphylococcus aureus ATCC 25923; assay type: cell-based
Procedure: as §1

Compound: CSCC[C@H](NC(=O)[C@H](CCCNC(=N)N)NC(=O)[C@H](Cc1c[nH]c2ccccc12)NC(=O)[C@H](CCC(N)=O)NC(=O)[C@H](Cc1c[nH]c2ccccc12)NC(=O)[C@H](CCCNC(=N)N)NC(=O)[C@H](CCCNC(=N)N)NC(=O)[C@H](CSCNC(C)=O)NC(=O)[C@@H](N)CCCCN)C(=O)N[C@@H](CCCCN)C(=O)N[C@@H](CCCCN)C(=O)N[C@@H](CC(C)C)C(=O)NCC(=O)N[C@@H](C)C(=O)O [LFB 18-31] (H-KC(Acm)RRWQWRMKKLGA-OH; N-terminus assumed)
- MIC E. coli ATCC 25922 ([1]; ATCC 25922): 80 µg/mL
- MIC E. coli ATCC 25922 ([1]; Table 1, value in brackets): 43 µM
- MIC E. coli ([1]; Table 11): 80 µg/mL (≈ 41.7 µM)
- MIC S. aureus ATCC 25923 ([2]; ATCC 25923): 200 µg/mL
- MIC S. aureus ATCC 25923 ([2]; Table 1, value in brackets): 108 µM
- MIC S. aureus ([2]; Table 11): 200 µg/mL (≈ 104 µM)

Compound: CSCC[C@H](NC(=O)[C@H](CCCNC(=N)N)NC(=O)[C@H](Cc1c[nH]c2ccccc12)NC(=O)[C@H](CCC(N)=O)NC(=O)[C@H](Cc1c[nH]c2ccccc12)NC(=O)[C@H](CCCNC(=N)N)NC(=O)[C@H](CCCNC(=N)N)NC(=O)[C@@H](N)CSCNC(C)=O)C(=O)N[C@@H](CCCCN)C(=O)N[C@@H](CCCCN)C(=O)N[C@@H](CC(C)C)C(=O)NCC(=O)N[C@@H](C)C(=O)O [LFB 19-31] (H-C(Acm)RRWQWRMKKLGA-OH; N-terminus assumed)
- MIC E. coli ([1]; ATCC 25922): 200 µg/mL (≈ 112 µM)
- MIC E. coli ATCC 25922 ([1]; ATCC 25922): 200 µg/mL
- MIC E. coli ATCC 25922 ([1]; Table 1, value in brackets): 120 µM
- MIC S. aureus ([2]; ATCC 25923): >250 µg/mL
- MIC S. aureus ATCC 25923 ([2]; ATCC 25923): > 250 µg/mL
- MIC S. aureus ATCC 25923 ([2]; Table 1, value in brackets): > 150 µM

Compound: CSCC[C@H](NC(=O)[C@H](CCCNC(=N)N)NC(=O)[C@H](CCCNC(=N)N)NC(=O)[C@H](CCC(N)=O)NC(=O)[C@H](Cc1c[nH]c2ccccc12)NC(=O)[C@H](CCC(N)=O)NC(=O)[C@H](Cc1ccc(O)cc1)NC(=O)[C@H](CSCNC(C)=O)NC(=O)[C@H](CCCCN)NC(=O)[C@@H](N)CO)C(=O)N[C@@H](CCCNC(=N)N)C(=O)N[C@@H](CCCCN)C(=O)N[C@@H](CC(C)C)C(=O)NCC(=O)N[C@@H](C)C(=O)O [Native LFG, SKCYQWQRRMRKLGA] (H-SKC(Acm)YQWQRRMRKLGA-OH; N-terminus assumed)
- MIC E. coli ([1]; Table 4): 750 µg/mL (≈ 378 µM)

The next lines start with the values.

- MIC E. coli ([1]; ATCC 25922): 70 µg/mL (≈ 35.2 µM)
- MIC S. aureus ([2]; ATCC 25923): >200 µg/mL
Compound: CSCC[C@H](NC(=O)[C@H](CCCNC(=N)N)NC(=O)[C@H](Cc1c[nH]c2ccccc12)NC(=O)[C@H](CCC(N)=O)NC(=O)[C@H](Cc1c[nH]c2ccccc12)NC(=O)[C@H](CCCNC(=N)N)NC(=O)[C@H](CCCNC(=N)N)NC(=O)[C@H](CSCNC(C)=O)NC(=O)[C@H](CCCCN)NC(=O)[C@H](C)N)C(=O)N[C@@H](CCCCN)C(=O)N[C@@H](CCCCN)C(=O)N[C@@H](CC(C)C)C(=O)NCC(=O)N[C@@H](C)C(=O)O [LFB A1] (H-AKC(Acm)RRWQWRMKKLGA-OH)

- MIC E. coli ([1]; ATCC 25922): 80 µg/mL (≈ 39.8 µM)
- MIC S. aureus ([2]; ATCC 25923): >200 µg/mL
Compound: CSCC[C@H](NC(=O)[C@H](CCCNC(=N)N)NC(=O)[C@H](Cc1c[nH]c2ccccc12)NC(=O)[C@H](CCC(N)=O)NC(=O)[C@H](Cc1c[nH]c2ccccc12)NC(=O)[C@H](CCCNC(=N)N)NC(=O)[C@H](CCCNC(=N)N)NC(=O)[C@H](CSCNC(C)=O)NC(=O)[C@H](C)NC(=O)[C@@H](N)Cc1ccccc1)C(=O)N[C@@H](CCCCN)C(=O)N[C@@H](CCCCN)C(=O)N[C@@H](CC(C)C)C(=O)NCC(=O)N[C@@H](C)C(=O)O [LFB A2] (H-FAC(Acm)RRWQWRMKKLGA-OH)

- MIC S. aureus ([2]; ATCC 25923): >200 µg/mL
Compound: CSCC[C@H](NC(=O)[C@H](CCCNC(=N)N)NC(=O)[C@H](Cc1c[nH]c2ccccc12)NC(=O)[C@H](CCC(N)=O)NC(=O)[C@H](Cc1c[nH]c2ccccc12)NC(=O)[C@H](CCCNC(=N)N)NC(=O)[C@H](C)NC(=O)[C@H](CSCNC(C)=O)NC(=O)[C@H](CCCCN)NC(=O)[C@@H](N)Cc1ccccc1)C(=O)N[C@@H](CCCCN)C(=O)N[C@@H](CCCCN)C(=O)N[C@@H](CC(C)C)C(=O)NCC(=O)N[C@@H](C)C(=O)O [LFB A4] (H-FKC(Acm)ARWQWRMKKLGA-OH)

- MIC E. coli ([1]; ATCC 25922): 10 µg/mL
- MIC E. coli ([1]; Table 14, peptides with a proportion of D amino acids): 10 µg/mL
Compound: RWWRYWR-NH2 [LFM 18-24 R1, 7 W2,3, 6Y5NH2, ARG-TRP-TRP-ARG-TYR-TRP-ARG-CONH2]
